Tests used:
ApoE*3-Leiden mice = assay: mouse femoral artery cuff model of restenosis (neointima formation); type: in vivo; settings: cuff around the femoral artery for 14 days, cuffs loaded with 1% (w/w) thalidomide, p=0.005
From the text: (§1) For the mouse study, ApoE*3-Leiden mice and TNF knockout mice were used to determine the impact of TNF-alpha on restenosis development after cuff placement around the femoral artery for 14 days. In another ApoE*3-Leiden mice group the cuffs were loaded with 1% (w/w) thalidomide, a TNF biosynthesis inhibitor.

TNF protein = assay: vascular levels of TNF protein after local thalidomide in the mouse cuff model; type: in vivo, mice; settings: thalidomide administered locally (cuff)
Protocol: as §1
Furthermore, the vascular levels of TNF protein were decreased when thalidomide was administered locally.

O=C1CCC(N2C(=O)c3ccccc3C2=O)C(=O)N1 (centres unmarked) [thalidomide, 2-(2,6-dioxo-3-piperidinyl)-1H-isoindole-1,3(2H)-dione]
neointima formation (ApoE*3-Leiden mice): significantly less neointima formation
vascular levels of TNF protein (TNF protein): decreased
